Data taken from patent US8633154B2, “Cyclodepsipeptides with antineoplastic activity and methods of using to inhibit cancer and microbial growth” (Arizona Board of Regents, a body corporate of the State of …, priority 2007, dated 2014).
Values after ≈ are worked out from the molar mass of the structure shown.

Assays:
Format in all cases: cell-based
BXPC-3 = assay: Human cancer cell line growth inhibition, BXPC-3
MCF-7 = assay: Human cancer cell line growth inhibition, MCF-7
SF268 = assay: Human cancer cell line growth inhibition, SF268
NCI-H460 = assay: Human cancer cell line growth inhibition, NCI-H460
KM20L2 = assay: Human cancer cell line growth inhibition, KM20L2
DU-145 = assay: Human cancer cell line growth inhibition, DU-145
[1] = test system: Cryptococcus neoformans ATCC 90112; assay: Broth microdilution susceptibility assay, Cryptococcus neoformans
Description: (§1) Cyclodepsipeptides 1 and 2 were screened against the bacteria Stenotrophomonas maltophilia ATCC 13637, Micrococcus luteus Presque Isle 456, Staphylococcus aureus ATCC 29213, Escherichia coli ATCC 25922, Enterobacter cloacae ATCC 13047, Enterococcus faecalis ATCC 29212, Streptococcus pneumoniae ATCC 6303, Neisseria gonorrhoeae ATCC 49226, and the fungi Candida albicans ATCC 90028 and Cryptococcus neoformans ATCC 90112, according to established broth microdilution susceptibility assays.^15,16 Owing to a paucity of material, compound 2 was tested against S. maltophilia, M. luteus, S. aureus, E. coli and C. albicans only. Compounds were reconstituted in a small volume of sterile DMSO and diluted in the appropriate media immediately prior to susceptibility experiments. The minimum inhibitory concentration was defined as the lowest concentration of compound that inhibited all visible growth of the test organism (optically clear). Assays were repeated on separate days.

[2] = test system: Micrococcus luteus Presque Isle 456; assay: Broth microdilution susceptibility assay, Micrococcus luteus
Description: as §1

[3] = test system: Enterococcus faecalis ATCC 29212; assay: Broth microdilution susceptibility assay, Enterococcus faecalis; details: ATCC29212, read-out: minimum inhibitory concentration [MIC]
Description: as §1

SMILES	Inhibition of Human Cancer Cell Lines (GI50) BXPC-3 (BXPC-3) [ng/mL]	Inhibition of Human Cancer Cell Lines (GI50) MCF-7 (MCF-7) [ng/mL]	Inhibition of Human Cancer Cell Lines (GI50) SF268 (SF268) [ng/mL]	Inhibition of Human Cancer Cell Lines (GI50) NCI-H460 (NCI-H460) [ng/mL]	Inhibition of Human Cancer Cell Lines (GI50) KM20L2 (KM20L2) [ng/mL]	Inhibition of Human Cancer Cell Lines (GI50) DU-145 (DU-145) [ng/mL]	minimum inhibitory concentration [MIC] ([1]; broth microdilution) [ng/mL]	minimum inhibitory concentration [MIC] [2] [ng/mL]	GI50 (BXPC-3; Homo sapiens, read-out: Inhibition of Human Cancer Cell Lines (GI50) BXPC-3) [ng/mL]	GI50 (MCF-7; Homo sapiens, MCF7, read-out: Inhibition of Human Cancer Cell Lines (GI50) MCF-7) [ng/mL]	GI50 (SF268; Homo sapiens, SF-268, read-out: Inhibition of Human Cancer Cell Lines (GI50) SF268) [ng/mL]	GI50 (NCI-H460; Homo sapiens, read-out: Inhibition of Human Cancer Cell Lines (GI50) NCI-H460) [ng/mL]	GI50 (KM20L2; Homo sapiens, KM-20L2, read-out: Inhibition of Human Cancer Cell Lines (GI50) KM20L2) [ng/mL]	GI50 (DU-145; Homo sapiens, read-out: Inhibition of Human Cancer Cell Lines (GI50) DU-145) [ng/mL]	MIC ([1]; ATCC90112, read-out: minimum inhibitory concentration [MIC]) [ng/mL]	MIC [3] [ng/mL]
CCC(C)[C@@H]1OC(=O)[C@H](C)OC(=O)[C@@H](NC(=O)c2cccc(NC=O)c2O)[C@@H](C)OC(=O)[C@H](CC(C)C)OC(=O)C(C)(C)C(=O)[C@H](CC(C)C)NC1=O (stereo partly shown) [Cyclodepsipeptide 1, respirantin]	470	0.6	1.6	0.6	0.6	0.18	2000 (≈ 2670 nM)	–	–	–	–	–	–	–	–	–
CC[C@H](C)[C@@H]1OC(=O)[C@H](C)OC(=O)[C@@H](NC(=O)c2cccc(NC=O)c2O)[C@@H](C)OC(=O)[C@H](C(C)C)OC(=O)C(C)(C)C(=O)[C@H](CC(C)C)NC1=O [Cyclodepsipeptide 2]	1200	0.62	16	0.63	0.58	<0.1	–	64000 (≈ 87200 nM)	–	–	–	–	–	–	–	–
CCC(C)[C@@H]1OC(=O)[C@H](C)OC(=O)[C@@H](NC(=O)c2cccc(N)c2O)[C@@H](C)OC(=O)[C@H](CC(C)C)OC(=O)C(C)(C)C(=O)[C@H](CC(C)C)NC1=O (stereo partly shown) [Cyclodepsipeptide 3, Kitastatin 1]	–	–	–	–	–	–	–	–	6.6 (≈ 9.17 nM)	4 (≈ 5.56 nM)	3.5 (≈ 4.86 nM)	< 1	2.4 (≈ 3.33 nM)	2.6 (≈ 3.61 nM)	64000 (≈ 88900 nM)	64000 (≈ 88900 nM)
